Test [1] deals with T1, Porcine pancreatic lipase (PL) (Sus scrofa, UniProt P00591).
T1 construct: purchased Sigma Chemical Co. (St. Louis, MO, USA)
T1 sequence (P00591 1-450): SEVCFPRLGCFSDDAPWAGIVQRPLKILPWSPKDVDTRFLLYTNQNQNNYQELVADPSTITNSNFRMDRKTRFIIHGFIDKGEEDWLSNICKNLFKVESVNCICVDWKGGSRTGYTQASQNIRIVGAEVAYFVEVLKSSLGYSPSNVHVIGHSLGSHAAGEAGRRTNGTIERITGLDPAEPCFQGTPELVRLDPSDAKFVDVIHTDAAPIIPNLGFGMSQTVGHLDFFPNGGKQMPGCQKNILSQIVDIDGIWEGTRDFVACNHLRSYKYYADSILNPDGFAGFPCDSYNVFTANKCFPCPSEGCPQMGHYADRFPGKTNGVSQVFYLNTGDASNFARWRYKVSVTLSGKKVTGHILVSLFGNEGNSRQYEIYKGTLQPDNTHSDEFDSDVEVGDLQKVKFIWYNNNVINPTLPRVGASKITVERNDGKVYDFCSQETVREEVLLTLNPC
Kind of test: Pancreatic lipase inhibition assay (pNPB substrate, absorbance 405 nm). The test is classed as biochemical. As to conditions: for IC50: pNPB substrate, Tris-HCl pH 7.5, 37°C. Here is the method:
Grind small pieces of cod meat into surimi, add alkaline protease, and hydrolyze for 2 h. The enzyme was then inactivated by high temperature and centrifuged. Finally, the supernatant was spray dried to obtain cod peptide (CP). According to the method of Hou et al. ([28]), the PL inhibition test was carried out on the protein hydrolysates, its gel chromatography fraction, and the pure peptides. The sample and PL were dissolved in Tris-HCl buffer (pH = 7.5), and pNPB was dissolved in acetonitrile, and diluted with tris-HCl buffer. Add 100 μL of the sample, 200 μL of Tris-HCl buffer, 150 μL of PL (5 mg/mL) to a 1.5 mL EP tube, incubate at 37°C for 10 min, and then add 150 μL of […] pNPB, shake and mix, and incubate at 37°C for 10 min. After the reaction was completed, the absorbance value at 405 nm was measured with a multifunctional microplate reader, and the PL inhibitory activity was calculated according to the following equation: Inhibition rate (%) = 1- (absorbance in the presence of inhibitor/[…] in negative control) × 100%.

Test [2] deals with T1, Porcine pancreatic lipase (PL). Briefly: Assay of PLIs kinetics (reversibility, Lineweaver-Burk plots). The class given is biochemical. As to conditions: from slope of Lineweaver-Burk plot vs. peptide concentration; read-out: Ki (competitive inhibition constant). As to the method:
According to the method reported in the previous literature, with a slight modification, the type of inhibition of PL by active peptides was determined ([29], [30]). The peptide (0.8 mg/mL, final concentration) was reacted with different concentrations (0, 5, 10, 15, 20 mg/mL) of PL for 10 min, then 10 mM pNPB was added for 10 min. the absorbance of the reaction system at a wavelength of 405 nm was measured to determine the reversibility of the reaction. Next, the optimal PL concentration (5 mg/mL) and peptide (0, 0.8 mg/mL, final concentration) were fixed, and pNPB with different concentrations (1, 2, 3, 4, and 5 mM) was added to react for 10 min, a value was measured every 30 s, and the wavelength was 405 nm. The Lineweaver-Burk double reciprocal curve was used to determine the maximum velocity (Vmax) and Michaelis–Menten constant (Km). The slope and y-intercept of the Lineweaver-Burk plot vs. peptide concentration give a straight line with the intercepts on the horizontal axis as Ki (competitive inhibition constant) and K'i values (uncompetitive inhibition constant), respectively.

Where no end group is shown, it is not given here.

The term IC50 denotes the concentration that gives 50% inhibition. The low end stands for greater potency in that assay, the high end for weaker potency in that assay. One may read the Ki as a measure of affinity in units of concentration, obtained from inhibition or displacement. For GSPPPSG [GSPPPSG], the half-inhibitory concentration (IC50) in test [1] was 1 mM. For the same substance, the Ki in test [2] came to 4.19 mM.

Take KLEGDLK [KLEGDLK]: the IC50 in test [1] is 1.35 mM. Also, in test [1] (peptide concentration 6 mg/mL, read-out: residual activity on PL), the remaining activity at 6000 µg/mL was roughly 10%. In addition, the inhibitory constant (Ki) in test [2] is 1.4 mM.

The values above are taken from paper PMC9403610, “Efficient screening of pancreatic lipase inhibitors from cod meat hydrolysate through ligand fishing strategy” (Frontiers in Nutrition, 2022).
